Results taken from article PMC8976160 (Drug Design, Development and Therapy, 2022).

Target: T1, human Glx-I enzyme (Homo sapiens, UniProt Q04760)
T1 sequence (Q04760 2-184 limits assumed): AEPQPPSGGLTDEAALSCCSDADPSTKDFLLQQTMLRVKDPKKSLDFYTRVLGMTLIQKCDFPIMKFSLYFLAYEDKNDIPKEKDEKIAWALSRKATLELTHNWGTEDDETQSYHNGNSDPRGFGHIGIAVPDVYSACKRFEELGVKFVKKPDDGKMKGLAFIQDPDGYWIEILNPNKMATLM
Assay: Glx-I inhibitory activity in vitro
Type: biochemical
Settings: for inhibition at 25 µM: read-out: % Inhibition at 25 μM

Compound | IC50 | inhibition at 25 µM
NS(=O)(=O)c1ccc(/N=N/c2ccc(O)c(C(=O)O)c2)cc1 [Compound 26, (E)-2-hydroxy-5-((4-sulfamoylphenyl)diazenyl)benzoic acid] | 0.39 ± 0.03 µM | 97.4%
Nc1ccc(/N=N/c2ccc(S(N)(=O)=O)cc2)c2cc(O)ccc12 [Compound 13, (E)-4-((4-amino-7-hydroxynaphthalen-1-yl)diazenyl)benzenesulfonamide] | 39.1 ± 5.31 µM | 46.2%
